Here are results for 7 substances from patent US20220280594A1, “APPLICATION OF POLYPEPTIDE OR DERIVATIVE THEREOF” (CHENGDU HUITAI BIOMEDICINE CO., LTD., priority 2019, published 2022).

For assay [1], the system named is human pancreatic cancer cells (PANC-1). Put plainly: scratch assay, migration of PANC-1 cells. In kind it is cell-based. The conditions noted are these: PANC-1, 10 μM, 48 hours; control group 66.65 ± 3.37. The procedure: (§1) In the scratch assay, the cell migration rate was negatively correlated with the inhibitory effect of the drug component on tumor cell migration ability. The cell migration inhibition experiment was described as follows: tumor cells were cultured in vitro, cells in logarithmic growth phase were collected and seeded evenly in a 24-well plate at a density of 1-2×10^5 cells/well; the cells were cultured in a cell incubator until a monolayer was formed; a scratch tool was used to make a “-” (straight) scratch on the monolayer of cells; the cells were washed 1-3 times with PBS, and a medium (with 2% fetal bovine serum) containing specific test components was added to the culture. Experimental grouping: PBS control group; polypeptide or derivative thereof treatment group (N1-N54), 10 μM. Three independent parallel wells were set up in each group, and the cells were cultured continuously in a cell incubator for 48 hours. […] At least 3 representative images for each well were taken. ImageJ software was used to count the migration distance of the cells, and the cell migration rate was calculated as: cell migration rate (%)=(width of original scratch−width of current scratch)/width of original scratch×100.
This example was a scratch assay to evaluate the inhibitory effect of the polypeptide or derivative thereof (N1-N54) on the migration ability of human pancreatic cancer cells (PANC-1). The experimental method was as described in Example 2.

Assay [2] deals with human liver cancer cells (HepG2). Put plainly: scratch assay, migration of HepG2 cells. In kind it is cell-based. The settings on record: HepG2, 10 μM, 48 hours; control group 71.01 ± 6.63. The protocol: as §1
This example was a scratch assay to evaluate the inhibitory effect of the polypeptide or derivative thereof (N1-N54) on the migration ability of human liver cancer cells (HepG2). The experimental method was as described in Example 2.

Assay [3] has as its system human breast cancer cells (MDA-MB-453). Put plainly: scratch assay, migration of MDA-MB-453 cells. In kind it is cell-based. The conditions noted are these: MDA-MB-453, 10 μM, 48 hours; control group 32.42 ± 2.04. The procedure: as §1
This example was a scratch assay to evaluate the inhibitory effect of the polypeptide or derivative thereof (N1-N54) on the migration ability of human breast cancer cells (MDA-MB-453). The experimental method was as described in Example 2.

The test system of assay [4] is human breast cancer cells (MCF-7). The assay can be described thus: scratch assay, migration of MCF-7 cells. It is filed as cell-based. The conditions noted are these: MCF-7, 10 μM, 48 hours; control group 30.97 ± 1.79. The protocol: as §1
This example was a scratch assay to evaluate the inhibitory effect of the polypeptide or derivative thereof (N1-N54) on the migration ability of human breast cancer cells (MCF-7). The experimental method was as described in Example 2.

The subject of assay [5] is human pancreatic cancer cells (PANC-1). The assay can be described thus: transwell invasion assay, PANC-1 cells. It is filed as cell-based. The conditions noted are these: PANC-1 transwell invasion, 10 μM, 24 hours; control group 727 ± 68. The text has this:
The Transwell chamber system was used in the transwell cell invasion experiment. The chamber has an upper layer and a lower layer, which are separated by an artificial semipermeable membrane in the middle. The upper surface of the semipermeable membrane is coated with a layer of artificial matrigel to simulate extracellular matrix. Cells that have invaded through the matrigel and semi-permeable membrane will attach to the lower surface of the semi-permeable membrane. The invasion ability is evaluated by counting the number of cells on the lower surface of the semi-permeable membrane. The number of cells that have invaded is negatively correlated with the inhibitory effect of the drug on the invasion ability of the tumor cells. Transwell invasion assay was performed as follows: tumor cells were cultured in vitro, cells in logarithmic growth phase were collected, and cell suspension was prepared with fresh serum-free medium at a density of 2-3×10^5 cells/mL. Cells were inoculated, 100 μL/well cell suspension (serum-free medium) in the upper chamber and 600 μL/well complete culture medium in the lower chamber. After incubated in 37° C., 5% CO2 incubator for 4-5 hours, serum-free medium (100 μL/well) was added to the control group, and serum-free medium containing polypeptide or derivative thereof (N1-N54) was added to the upper chamber of the treatment group (100 μL/well), the final concentration of the peptide or derivative thereof in the upper chamber was 10 μM. The cells were incubated continuously for 24 hours, and then fixed with methanol and stained with crystal violet. Images were taken under a microscope and the number of invaded cells was counted with ImageJ.
This example was the transwell cell invasion experiment to evaluate the inhibitory effect of the polypeptide or derivative thereof (N1-N54) on the invasion ability of human pancreatic cancer cells (PANC-1). The experimental method was as described in Example 4.

Assay [6] has as its system human breast cancer cells (MDA-MB-231). Put plainly: scratch assay, migration of MDA-MB-231 cells. It is filed as cell-based. The settings on record: MDA-MB-231, 10 μM, 48 hours; control group 36.19 ± 5.15. The protocol:
as §1
This example was a scratch assay to evaluate the inhibitory effect of the polypeptide or derivative thereof (N1-N54) on the migration ability of human breast cancer cells (MDA-MB-231). The experimental method was as described in Example 2.

Assay [7] deals with human lung cancer cells (A549) subcutaneous xenograft. The assay can be described thus: lung cancer subcutaneous xenograft animal model, intravenous injection. It is filed as in vivo, mice (BALB/c-nu/nu). The conditions noted are these: intravenous 60 mg/kg once every other day, 20 days; for Weight of tumor (g) (mean ± SD): control 2.53 ± 0.17; for Volume of tumor (mm^3) (mean ± SD): control 3373.26 ± 581.44. The protocol:
Experimental animals: 4-6 weeks old female immunodeficiency mice (BALB/c-nu/nu, Beijing Vital River Laboratory Animal Technology Co., Ltd.).
Subcutaneous xenograft animal model. The number of cells inoculated subcutaneously vin mice was about 2×10^6/200 μL. When the volume of the subcutaneous tumor was greater than 100 mm^3, the mice were randomly divided into groups and subjected to treatment. When the mass volume of the tumors in model control group reached 2000 mm^3 or the animal dies, the treatment ended. The animals were dissected, the tumors were taken out, and the weight and volume of the tumors were measured. During the period of the entire experiment, the mice were observed and the body weight was measured every other day.
The method used in the efficacy test on the lung cancer subcutaneous xenograft animal model was as described in Example 5. The lung cancer cells were the human lung cancer cells (A549), and the route of administration was intravenous injection. This example involved a total of 3 experiments to evaluate N1-N15, N16-N30, and N31-N54 respectively. The experimental procedure, route of administration, dosage and frequency of administration, and detection method were all consistent in the three experiments. The experimental groups were model control group and polypeptide or derivative thereof treatment groups (N1-N15, N16-N30, or N31-N54). The drug dosage of the N1-N54 treatment groups was 60 mg/kg, and the treatment time was 20 days.

For assay [8], the system named is human prostate cancer cells (22RV1). The assay can be described thus: scratch assay, migration of 22RV1 cells. In kind it is cell-based. The conditions noted are these: 22RV1, 10 μM, 48 hours; control group 25.41 ± 5.01. The procedure: as §1
This example was a scratch assay to evaluate the inhibitory effect of the polypeptide or derivative thereof (N1-N54) on the migration ability of human prostate cancer cells (22RV1). The experimental method was as described in Example 2.

Ends that are not written are not given here. PEG = not defined here

In the case of “N1: polypeptide with the amino acid sequence set forth in SEQ ID NO: 1 (YRVRFLAKENVTQDAEDN)”, the “Migration rate (%) (mean ± SD, P)” value is recorded as 18.89 ± 6.68,*** % in assay [1]; 17.42 ± 7.70,*** % in assay [2]; 13.05 ± 2.05,** % in assay [3]; 11.18 ± 2.89,** % in assay [4]; 21.83 ± 3.73,* % in assay [6]; 7.26 ± 3.36,** % in assay [8]. The “Number of cells (mean ± SD, P), invaded cells” value (“Number of cells (mean ± SD, P)” for short) in assay [5] was 83 ± 26,****. Also, the “Weight of tumor (g) (mean ± SD)” value in assay [7] came to 1.01 ± 0.2 g. In addition, the “Volume of tumor (mm^3) (mean ± SD)” value in assay [7] is reported as 1340.25 ± 319.59 mm^3.

For the substance “N2: SEQ ID NO: 1 with deletion of one amino acid (position 18) at the carboxyl terminal (YRVRFLAKENVTQDAED)”, the “Migration rate (%) (mean ± SD, P)” value is on record as 32.74 ± 4.26,** % in assay [1]; 13.05 ± 6.50,*** % in assay [2]; 12.96 ± 3.13,** % in assay [3]; 12.32 ± 2.26,** % in assay [4]; 20.92 ± 2.16,* % in assay [6]; 6.48 ± 2.97,** % in assay [8]. In addition, the “Number of cells (mean ± SD, P)” value in assay [5] is recorded as 93 ± 19,****. Further, in assay [7], the “Weight of tumor (g) (mean ± SD)” value amounted to 0.6 ± 0.28 g. For the same substance, the “Volume of tumor (mm^3) (mean ± SD)” value in assay [7] came to 1297.28 ± 359.77 mm^3.

As for “N3: SEQ ID NO: 1 with deletion of position 18 and PEG modification at the amino terminal ({PEG}-YRVRFLAKENVTQDAED; reading uncertain)”, the “Migration rate (%) (mean ± SD, P)” value was 29.67 ± 5.64,*** % in assay [1]; 17.57 ± 6.98,*** % in assay [2]; 13.04 ± 3.5,** % in assay [3]; 10.39 ± 2.07,** % in assay [4]; 21.98 ± 2.74,* % in assay [6]; 6.15 ± 4.65,** % in assay [8]. In addition, the “Number of cells (mean ± SD, P)” value in assay [5] is 111 ± 10,****. In assay [7], the “Weight of tumor (g) (mean ± SD)” value came out at 0.56 ± 0.16 g. In addition, the “Volume of tumor (mm^3) (mean ± SD)” value in assay [7] is recorded as 1511.56 ± 433.12 mm^3.

For “N4: SEQ ID NO: 1 with deletion of positions 15-18 and positions 1-3 (RFLAKENVTQD)”, the “Migration rate (%) (mean ± SD, P)” value is 19.04 ± 8.54,*** % in assay [1]; 25.37 ± 6.11,*** % in assay [2]; 15.74 ± 4.83,* % in assay [3]; 13.6 ± 2.28,** % in assay [4]; 21.44 ± 2.59,* % in assay [6]; 13.44 ± 3.24,* % in assay [8]. Moreover, the “Number of cells (mean ± SD, P)” value in assay [5] is reported as 37 ± 4,****. For the same substance, in assay [7], the “Weight of tumor (g) (mean ± SD)” value came to 0.56 ± 0.19 g. In addition, the “Volume of tumor (mm^3) (mean ± SD)” value in assay [7] came out at 1515.07 ± 507.99 mm^3.

In the case of “N5: SEQ ID NO: 1 with addition of one amino acid at the carboxyl terminal and deletion of positions 1-3 (RFLAKENVTQDAEDNC)”, the “Migration rate (%) (mean ± SD, P)” value in assay [1] is 21.63 ± 6.16,*** %; in assay [2], 19.84 ± 5.04,*** %; in assay [3] it was 14.74 ± 3.23,** %; in assay [4], 14.50 ± 2.66,** %; in assay [6], 22.13 ± 3.22,* %; in assay [8] it was 10.37 ± 3.53,* %. Further, the “Number of cells (mean ± SD, P)” value in assay [5] is recorded as 109 ± 7,****. Besides, the “Weight of tumor (g) (mean ± SD)” value in assay [7] is 0.71 ± 0.12 g. Also, the “Volume of tumor (mm^3) (mean ± SD)” value in assay [7] is 1353.09 ± 422.65 mm^3.

Regarding “N6: SEQ ID NO: 1 with deletion of four amino acids at the carboxyl terminal (positions 15-18) (YRVRFLAKENVTQD)”, the “Migration rate (%) (mean ± SD, P)” value in assay [1] is recorded as 36.66 ± 5.57,** %; in assay [2] it was 16.65 ± 6.70,*** %; in assay [3], 13.01 ± 3.14,** %; in assay [4], 15.69 ± 4.09,* %; in assay [6], 17.42 ± 4.98,* %; in assay [8], 12.31 ± 2.85,* %. The “Number of cells (mean ± SD, P)” value in assay [5] was 110 ± 5,****. Further, the “Weight of tumor (g) (mean ± SD)” value in assay [7] was determined as 0.88 ± 0.19 g. For the same substance, in assay [7], the “Volume of tumor (mm^3) (mean ± SD)” value was determined as 1361.03 ± 248.72 mm^3.

Consider “N7: SEQ ID NO: 1 with addition of one amino acid at the carboxyl terminal and substitution A15R (YRVRFLAKENVTQDREDNC)”, for which the “Migration rate (%) (mean ± SD, P)” value was 37.07 ± 7.83,** % in assay [1]; 11.54 ± 9.00,*** % in assay [2]; 12.64 ± 2.73,** % in assay [3]; 12.59 ± 3.23,** % in assay [4]; 21.04 ± 2.46,* % in assay [6]; 6.54 ± 2.24,** % in assay [8]. The “Number of cells (mean ± SD, P)” value in assay [5] was 70 ± 17,****. The “Weight of tumor (g) (mean ± SD)” value in assay [7] was found to be 0.81 ± 0.15 g. Besides, the “Volume of tumor (mm^3) (mean ± SD)” value in assay [7] is on record as 1189.39 ± 200.83 mm^3.
